≈ marks a conversion by molar mass, not a printed value. Entries after “also recorded” stand apart in the source; their conditions may differ. Read-outs that look alike come from different tables or passages of the source. Each block holds one compound with its values, some of them ahead of it.
Key:
Molt 4 cells = assay: Inhibition of the growth of T cells (Molt 4); type: cell-based; conditions: Homo sapiens
Procedure: (§1) The compounds of the invention were tested for inhibition of the growth of T cells (Molt 4) compared to B cells (IM9) by the method of Averett, D., Journal of Virological Methods, 23, (1989), 263-276.

IM9 cells = assay: Inhibition of the growth of B cells (IM9); type: cell-based; conditions: Homo sapiens; for IC50: IM-9; for activity at 10 µM: IM-9, printed in parentheses beside IC50 >10 μM, read-out: % of Control growth
Procedure: as §1

[1] = system: human T-cell line (Molt 4) in contrast to a human B-cell line (IM9); assay: Selective inhibition of T cell growth, Molt 4 compared to IM9; type: cell-based; conditions: Molt 4 vs IM9
Procedure: as §1

[2] = Solubility in PBS at 25° C.; type: physicochemical; conditions: aqueous buffer, phosphate buffered saline
[3] = Bioavailability of araG after oral administration to Cynomolgus monkeys (plasma, urine); type: in vivo; conditions: fasted Cynomolgus monkeys, individual animals; for Cmax: read-out: Plasma araG Peak Level
Procedure: AraG and compounds of the invention were administered orally to Cynomolgus monkeys which had been fasted for eight hours. Each compound was given to two monkeys. The dosage was 94 μmol/kg which is equivalent to 27 mg/kg araG. Blood samples were taken over the following 24 hours, and urine was collected over the same 24 hours. Concentrations of araG in plasma extracts and urine were determined by reverse phase HPLC.

[4] = Water solubility (statement); type: physicochemical; conditions: in words
[5] = Bioavailability after oral dosing in primates (statement); type: in vivo; conditions: in words
[6] = system: T cells compared to B cells; T-leukemic cells; conditions: cited from earlier work

IC50 (Molt 4 cells): 800 ± 100 nM
SMILES: COc1nc(N)nc2c1ncn2[C@@H]1O[C@H](CO)[C@@H](O)[C@@H]1O [compound 1, 2-Amino-6-methoxy-9-(β-D-arabinofuranosyl)-9H-purine]
IC50 (IM9 cells): > 10000 nM
activity at 10 µM (IM9 cells): 85%
selective inhibition of growth of T-cell line vs B-cell line [1]: selectively inhibits the growth of a human T-cell line (Molt 4) in contrast to a human B-cell line (IM9)

IC50 (Molt 4 cells): 1400 ± 80 nM
solubility [2]: 4 mM (≈ 1.13 mg/mL)
Plasma araG AUC 0.7 hrs ([3]; 94 μmol/kg, plasma, 420 min): 21.1 µM·h
Cmax ([3]; 94 μmol/kg, plasma): 4.6 µM
Urine % Recovered as araG ([3]; 94 μmol/kg, urine over 24 hours, 1440 min): 4.2%
AUC(0-t) at 7 h ([3]; cynomolgus monkey, plasma, po, 94 umol/kg, plasma, read-out: Plasma araG AUC 0.7 hrs): 20.8 µM·h
Cmax ([3]; cynomolgus monkey, plasma, po, 94 umol/kg, plasma): 6 µM
dose excreted at 24 h ([3]; cynomolgus monkey, urine, po, 94 umol/kg, urine over 24 hours, read-out: Urine % Recovered as araG): 3.9%
water solubility [4]: limited water solubility
SMILES: Nc1nc2c(ncn2[C@@H]2O[C@H](CO)[C@@H](O)[C@@H]2O)c(=O)[nH]1 [araG, arabinofuranosyl guanine]
IC50 (IM9 cells): > 10000 nM
activity at 10 µM (IM9 cells): 84%
oral bioavailability [5]: low bioavailability after oral dosing in primates
selective inhibition of growth of T cells / selective cytotoxic activity for T-leukemic cells [6]: selectively inhibits the growth of T cells compared to B cells; also recorded: selective cytotoxic activity for T-leukemic cells

solubility [2]: 38 mM (≈ 14.5 mg/mL)
SMILES: COc1nc(N)nc2c1ncn2[C@@H]1O[C@H](COC(C)=O)[C@@H](OC(C)=O)[C@@H]1O [Example 2j, 9-(3,5-di-O-Acetyl-β-D-arabinofuranosyl)-2-amino-6-methoxy-9H-purine]

solubility [2]: 92 mM (≈ 31.2 mg/mL)
SMILES: COc1nc(N)nc2c1ncn2[C@@H]1O[C@H](COC(C)=O)[C@@H](O)[C@@H]1O [Example 1b, 9-(5-O-Acetyl-β-D-arabinofuranosyl)-2-amino-6-methoxy-9H-purine]

— patent US5747472A, “Therapeutic methods for using ARA-G derivatives” (Glaxo Wellcome Inc., priority 1990, dated 1998)
